According to the supplement of paper PMC11208160:

Test: recombinant UMI read abundance after kanamycin selection (control-corrected) (log10(CPM+1)); higher = more efficient recombination; extreme values may be limits of the assay; sequences stand for … in AGTGCAGAGAAAATCGGCCAGTTTTCTCTGCCTGCAGTCCGCATGCCGTGGGACCCCTTGGGTTCTAACCTGTTGCCTAGATTTATGCAGCGGACTGCCTTTCTCCCAAAGTGATAAACCGG…AGGTTGGTTTCACT; site = the 11-nt donor
In short: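 Sequencing read counts were converted to CPM, averaged over two replicates and scaled by control-derived factors. Results are given as log10(CPM+1). The reads covered the donor–target junction of recombinant UMIs from a pooled Escherichia coli screen of donor and donor-binding-loop pairs for the IS621 bridge recombinase.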
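Further: IS621 bridge recombinase in Escherichia coli cells against a fixed T5 target plasmid.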

| Sequence | recombinant UMI read abundance (log10) |
| --- | --- |
| CTTCCCTCATGGACCGGTTTTCCCGGTAATCCGTATTTGTA (site CTTCCCTCTTA) | 2.49 |
| TGGCCGGCATGGACCGGTTTTCCCGGTAATCCGTATTTGGG (site TGGCCGGCTGC) | 0 |
| GAACTAGCATGGACCGGTTTTCCCGGTAATCCGTATTTGGT (site CGTTGCCCTTA) | 0.00867 |
| GCAGTAGCATGGACCGGTTTTCCCGGTAATCCGTATTTGCC (site GCAGTAGCTGG) | 0.831 |
| ACAGTAACATGGACCGGTTTTCCCGGTAATCCGTATTTGGA (site ACAGTAACTTC) | 2.19 |
| CGGGAACCATGGACCGGTTTTCCCGGTAATCCGTATTTGAT (site CGGAAACCTAT) | 0 |
| AGTTTGGCATGGACCGGTTTTCCCGGTAATCCGTATTTGCT (site CGTTTGGCTAG) | 0 |
| CTAGTATCATGGACCGGTTTTCCCGGTAATCCGTATTTGAC (site CTACTATCTGT) | 0.925 |
| GCGAAGCCATGGACCGGTTTTCCCGGTAATCCGTATTTGGG (site CCGAAGCCTCC) | 0.0227 |
| GTAAGGCCATGGACCGGTTTTCCCGGTAATCCGTATTTGAC (site ATAAGGCCTGT) | 0 |
| TAGCAAGCATGGACCGGTTTTCCCGGTAATCCGTATTTGAA (site TAGCTAGCTTT) | 0.00716 |
| ACTGTATCATGGACCGGTTTTCCCGGTAATCCGTATTTGCA (site ACAGTATCTTG) | 1.82 |
| CAAATCACATGGACCGGTTTTCCCGGTAATCCGTATTTGGG (site CAAATCACTCC) | 0.288 |
| CCGTATACATGGACCGGTTTTCCCGGTAATCCGTATTTGCT (site CCGTGTACTAG) | 0 |
| CGACCGTCATGGACCGGTTTTCCCGGTAATCCGTATTTGCA (site CGACCGTCTTG) | 3.11 |
| TCGCCTTCATGGACCGGTTTTCCCGGTAATCCGTATTTGGT (site TCGCCTTCTAC) | 0.00817 |
| AGCCTTCCATGGACCGGTTTTCCCGGTAATCCGTATTTGAC (site AGCCTTGCTGT) | 0 |
| TTTGGCACATGGACCGGTTTTCCCGGTAATCCGTATTTGGC (site TTTGGCACTGC) | 0.00668 |
| GCGAAGCCATGGACCGGTTTTCCCGGTAATCCGTATTTGGG (site GCGGAGCCTCC) | 0.0363 |

| Sequence | recombinant UMI read abundance (log10) |
| --- | --- |
| TGTTTGGCATGGACCGGTTTTCCCGGTAATCCGTATTTGCT (site GGTTTGGCTAG) | 0.0409 |
| ATAAGCCCATGGACCGGTTTTCCCGGTAATCCGTATTTGAC (site ATAAGACCTGT) | 0 |
| TGGCCGGCATGGACCGGTTTTCCCGGTAATCCGTATTTGTC (site TGGCCGGCTGC) | 0 |
| ACAGTAACATGGACCGGTTTTCCCGGTAATCCGTATTTGCA (site ACAGTAACTTG) | 2.83 |
| CGATAGACATGGACCGGTTTTCCCGGTAATCCGTATTTGCC (site GGATAGACTGG) | 0 |
| ACATCATCATGGACCGGTTTTCCCGGTAATCCGTATTTGCT (site CGATCATCTAG) | 1.05 |
| CACCACACATGGACCGGTTTTCCCGGTAATCCGTATTTGTA (site CGCCACACTTA) | 0.29 |
| CCCTGCTCATGGACCGGTTTTCCCGGTAATCCGTATTTGGG (site CCCTCCTCTCC) | 0.027 |
| ACTTAGACATGGACCGGTTTTCCCGGTAATCCGTATTTGGT (site ACTTAGACTAC) | 1.15 |
| TTTGCCTCATGGACCGGTTTTCCCGGTAATCCGTATTTGCC (site TTTGCCTCTGG) | 1.48 |
| CAATTCGCATGGACCGGTTTTCCCGGTAATCCGTATTTGCT (site CAATTCGCTAG) | 0.564 |
| CGTGGAACATGGACCGGTTTTCCCGGTAATCCGTATTTGAT (site CGTGGAACTAT) | 2.14 |
| AATGAGTCATGGACCGGTTTTCCCGGTAATCCGTATTTGAT (site AATGAGTCTAT) | 2.52 |
| ATTGTTCCATGGACCGGTTTTCCCGGTAATCCGTATTTGGT (site ATTGTTCCTAC) | 0 |
| TAGGAACCATGGACCGGTTTTCCCGGTAATCCGTATTTGCG (site TAGGAAACTCG) | 0.374 |
| TAGGAACCATGGACCGGTTTTCCCGGTAATCCGTATTTGCG (site TAGGAACCTCG) | 0.478 |
| CGCCGAACATGGACCGGTTTTCCCGGTAATCCGTATTTGCT (site CGCCGCACTAG) | 0.0174 |
| CACGGCCCATGGACCGGTTTTCCCGGTAATCCGTATTTGTT (site CTCGGCCCTAA) | 0.0153 |
